Assays:
Assay type in all cases: functional
[1] = test system: UACC-257; test: Cytotoxicity against human UACC257 cells assessed as cell growth at 0.01 uM after 48 hrs by sulforhodamine B assay relative to control; conditions: UACC-257, 48 h, read-out: Activity
[2] = test system: U-251; test: Cytotoxicity against human U251 cells assessed as cell growth at 1 uM after 48 hrs by sulforhodamine B assay relative to control; conditions: U-251, 48 h, read-out: Activity
[3] = test system: HL-60(TB); test: Cytotoxicity against human HL-60(TB) cells assessed as cell growth at 0.1 uM after 48 hrs by sulforhodamine B assay relative to control; conditions: HL-60, 48 h, read-out: Activity
[4] = test system: OVCAR-8; test: Cytotoxicity against human OVCAR8 cells assessed as growth inhibition after 48 hrs by sulforhodamine B assay; conditions: OVCAR-8, 48 h
[5] = test system: Malme-3M; test: Cytotoxicity against human MALME-3M cells assessed as growth inhibition after 48 hrs by sulforhodamine B assay
[6] = test system: MOLT-4; test: Cytotoxicity against human MOLT4 cells assessed as growth inhibition after 48 hrs by sulforhodamine B assay; conditions: MOLT-4, 48 h; for CC50: read-out: LC50 (the source's name)
[7] = test system: RPMI-8226; test: Cytotoxicity against human RPMI8226 cells assessed as growth inhibition after 48 hrs by sulforhodamine B assay; conditions: RPMI-8226, 48 h
[8] = test system: BT-549; test: Cytotoxicity against human BT549 cells assessed as cell growth at 0.1 uM after 48 hrs by sulforhodamine B assay relative to control; conditions: BT-549, 48 h, read-out: Activity
[9] = test system: NCI-H322M; test: Cytotoxicity against human NCI-H322M cells assessed as cell growth at 1 uM after 48 hrs by sulforhodamine B assay relative to control; conditions: read-out: Activity
[10] = test system: CCRF-CEM; test: Cytotoxicity against human CCRF-CEM cells assessed as cell growth at 1 uM after 48 hrs by sulforhodamine B assay relative to control; conditions: read-out: Activity
[11] = test system: BT-549; test: Cytotoxicity against human BT549 cells assessed as cell growth at 100 uM after 48 hrs by sulforhodamine B assay relative to control; conditions: BT-549, 48 h, read-out: Activity
[12] = test system: NCI-H460; test: Cytotoxicity against human NCI-H460 cells assessed as growth inhibition after 48 hrs by sulforhodamine B assay; conditions: NCI-H460, 48 h
[13] = test system: NCI-H226; test: Cytotoxicity against human NCI-H226 cells assessed as cell growth at 0.01 uM after 48 hrs by sulforhodamine B assay relative to control; conditions: NCI-H226, 48 h, read-out: Activity
[14] = test system: U-251; test: Cytotoxicity against human U251 cells assessed as cell growth at 10 uM after 48 hrs by sulforhodamine B assay relative to control; conditions: U-251, 48 h, read-out: Activity
[15] = test system: ACHN; test: Cytotoxicity against human ACHN cells assessed as cell growth at 10 uM after 48 hrs by sulforhodamine B assay relative to control; conditions: read-out: Activity
[16] = test system: SR; test: Cytotoxicity against human SR cells assessed as growth inhibition after 48 hrs by sulforhodamine B assay; conditions: for CC50: read-out: LC50 (the source's name)
[17] = test system: A549; test: Cytotoxicity against human A549/ATCC cells assessed as cell growth at 100 uM after 48 hrs by sulforhodamine B assay relative to control; conditions: A549, 48 h, read-out: Activity
[18] = test system: BT-549; test: Cytotoxicity against human BT549 cells assessed as cell growth at 10 uM after 48 hrs by sulforhodamine B assay relative to control; conditions: BT-549, 48 h, read-out: Activity
[19] = test system: HCT-116; test: Cytotoxicity against human HCT116 cells assessed as cell growth at 100 uM after 48 hrs by sulforhodamine B assay relative to control; conditions: HCT-116, 48 h, read-out: Activity
[20] = test system: UO-31; test: Cytotoxicity against human UO31 cells assessed as cell growth at 0.01 uM after 48 hrs by sulforhodamine B assay relative to control; conditions: UO-31, 48 h, read-out: Activity
[21] = test system: RXF 393; test: Cytotoxicity against human RXF393 cells assessed as growth inhibition after 48 hrs by sulforhodamine B assay; conditions: RXF 393, 48 h
[22] = test system: MDA-MB-435; test: Cytotoxicity against human MDA-MB-435 cells assessed as cell growth at 0.1 uM after 48 hrs by sulforhodamine B assay relative to control; conditions: MDA-MB-435, 48 h, read-out: Activity
[23] = test system: SK-OV-3; test: Cytotoxicity against human SKOV3 cells assessed as cell growth at 0.1 uM after 48 hrs by sulforhodamine B assay relative to control; conditions: SK-OV-3, 48 h, read-out: Activity
[24] = test system: HL-60(TB); test: Cytotoxicity against human HL-60(TB) cells assessed as cell growth at 0.01 uM after 48 hrs by sulforhodamine B assay relative to control; conditions: HL-60, 48 h, read-out: Activity
[25] = test system: MDA-MB-468; test: Cytotoxicity against human MDA-MB-468 cells assessed as cell growth at 1 uM after 48 hrs by sulforhodamine B assay relative to control; conditions: MDA-MB-468, 48 h, read-out: Activity
[26] = test system: HCT-15; test: Cytotoxicity against human HCT15 cells assessed as cell growth at 0.01 uM after 48 hrs by sulforhodamine B assay relative to control; conditions: HCT-15, 48 h, read-out: Activity
[27] = test system: SK-OV-3; test: Cytotoxicity against human SKOV3 cells assessed as cell growth at 100 uM after 48 hrs by sulforhodamine B assay relative to control; conditions: SK-OV-3, 48 h, read-out: Activity
[28] = test system: SR; test: Cytotoxicity against human SR cells assessed as cell growth at 0.1 uM after 48 hrs by sulforhodamine B assay relative to control; conditions: read-out: Activity
[29] = test system: HCT-15; test: Cytotoxicity against human HCT15 cells assessed as growth inhibition after 48 hrs by sulforhodamine B assay; conditions: HCT-15, 48 h
[30] = test system: A498; test: Cytotoxicity against human A498 cells assessed as cell growth at 10 uM after 48 hrs by sulforhodamine B assay relative to control; conditions: A498, 48 h, read-out: Activity
[31] = test system: Malme-3M; test: Cytotoxicity against human MALME-3M cells assessed as cell growth at 0.1 uM after 48 hrs by sulforhodamine B assay relative to control; conditions: read-out: Activity
[32] = test system: UACC-257; test: Cytotoxicity against human UACC257 cells assessed as cell growth at 10 uM after 48 hrs by sulforhodamine B assay relative to control; conditions: UACC-257, 48 h, read-out: Activity
[33] = test system: MOLT-4; test: Cytotoxicity against human MOLT4 cells assessed as cell growth at 100 uM after 48 hrs by sulforhodamine B assay relative to control; conditions: MOLT-4, 48 h, read-out: Activity
[34] = test system: SK-MEL-5; test: Cytotoxicity against human SK-MEL-5 cells assessed as cell growth at 100 uM after 48 hrs by sulforhodamine B assay relative to control; conditions: SK-MEL-5, 48 h, read-out: Activity
[35] = test system: SF-539; test: Cytotoxicity against human SF539 cells assessed as cell growth at 0.1 uM after 48 hrs by sulforhodamine B assay relative to control; conditions: SF-539, 48 h, read-out: Activity
[36] = test system: HT-29; test: Cytotoxicity against human HT-29 cells assessed as cell growth at 1 uM after 48 hrs by sulforhodamine B assay relative to control; conditions: HT-29, 48 h, read-out: Activity

Work on `COc1ccc(-c2cc(/C=C/C(=O)c3cc(OC)c(OC)c(OC)c3)[nH]n2)cc1OC` yielded a growth at 0.01 µM [1] of 96%, a growth at 1 µM [2] of 65% and a growth at 0.1 µM [3] of 93%. For the same compound, the GI50 [4] was 2.55 µM, the LC50 [4] was 42.1 µM and the TGI [4] was 11.7 µM. The GI50 [5] was 2.32 µM, the LC50 [5] was 47.5 µM and the TGI [5] was 6.19 µM. It also gave a GI50 [6] of 1.81 µM, a TGI [6] of 8.86 µM and a CC50 [6] of over 100 µM. For the same compound, the GI50 [7] was 0.29 µM, the LC50 [7] was over 100 µM and the TGI [7] was 1.66 µM. The growth at 0.1 µM [8] was 82%, the growth at 1 µM [9] was 82% and the growth at 1 µM [10] was 14%. For the same compound, the growth at 100 µM [11] was -93%, the GI50 [12] was 1.04 µM and the LC50 [12] was 29.9 µM. The TGI [12] was 3.6 µM, the growth at 0.01 µM [13] was 93% and the growth at 10 µM [14] was -97%. For the same compound, the growth at 10 µM [15] was -95%, the GI50 [16] was 0.2 µM and the TGI [16] was 2.26 µM. For the same compound, the CC50 [16] was over 100 µM, the growth at 100 µM [17] was -62% and the growth at 10 µM [18] was -80%. It also gave a growth at 100 µM [19] of -61%, a growth at 0.01 µM [20] of 88% and a GI50 [21] of 1.53 µM. The LC50 (concentration killing 50% of cells) [21] was 6.51 µM, the TGI [21] was 3.16 µM and the growth at 0.1 µM [22] was 91%. For the same compound, the growth at 0.1 µM [23] was 87%, the growth at 0.01 µM [24] was 98% and the growth at 1 µM [25] was 66%. It also gave a growth at 0.01 µM [26] of 99%, a growth at 100 µM [27] of -95% and a growth at 0.1 µM [28] of 73%. For the same compound, the GI50 [29] was 1.19 µM, the LC50 [29] was over 100 µM and the TGI [29] was 3.85 µM. It also gave a growth at 10 µM [30] of -28%, a growth at 0.1 µM [31] of 89% and a growth at 10 µM [32] of -64%. For the same compound, the growth at 100 µM [33] was -15%, the growth at 100 µM [34] was -98% and the growth at 0.1 µM [35] was 81%. It also gave a growth at 1 µM [36] of 68%.

With `COc1ccc(C(=O)/C=C/c2cc(-c3cc(OC)c(OC)c(OC)c3)n[nH]2)cc1` the growth at 0.01 µM [1] was 97%, the growth at 1 µM [2] was 81% and the growth at 0.1 µM [3] was 108%. For the same compound, the LC50 [4] was over 100 µM, the TGI [4] was 8.26 µM and the TGI [5] was 3.85 µM. It also gave a TGI [6] of 6.82 µM, a CC50 [6] of over 100 µM and an LC50 [7] of over 100 µM. It also gave a TGI [7] of 2.49 µM, a growth at 0.1 µM [8] of 97% and a growth at 1 µM [9] of 93%. For the same compound, the growth at 1 µM [10] was 62%, the growth at 100 µM [11] was -49% and the LC50 [12] was 8.18 µM. It also gave a TGI [12] of 3.75 µM, a growth at 0.01 µM [13] of 99% and a growth at 10 µM [14] of -98%. For the same compound, the growth at 10 µM [15] was -83%, the TGI [16] was 23.9 µM and the CC50 [16] was over 100 µM. For the same compound, the growth at 100 µM [17] was 1%, the growth at 10 µM [18] was -65% and the growth at 100 µM [19] was -10%. The growth at 0.01 µM [20] was 87%, the LC50 (concentration killing 50% of cells) [21] was 5.17 µM and the TGI [21] was 2.56 µM. It also gave a growth at 0.1 µM [22] of 95%, a growth at 0.1 µM [23] of 99% and a growth at 0.01 µM [24] of 115%. It also gave a growth at 1 µM [25] of 68%, a growth at 0.01 µM [26] of 99% and a growth at 100 µM [27] of -41%. The growth at 0.1 µM [28] was 83%, the LC50 [29] was over 100 µM and the TGI [29] was 4.37 µM. The growth at 10 µM [30] was -57%, the growth at 0.1 µM [31] was 91% and the growth at 10 µM [32] was -65%. It also gave a growth at 100 µM [33] of -4%, a growth at 100 µM [34] of -93% and a growth at 0.1 µM [35] of 99%. For the same compound, the growth at 1 µM [36] was 95%.
